Assay results reported in the supplement of paper PMC10307832.

Key:
Assay in all cases: relative viability (nuclei count vs DMSO), 5 days (fraction); higher = more cells survive
201T = tested on: 201T
Method in brief: (§1)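 Lung cancer cell lines, seeded in 1536-well plates, were treated the following day by pin tool with a single drug or with five library-drug doses (not always all listed) in √10 steps on top of a fixed anchor-drug dose. Cells were fixed and nuclei stained in one step after 5 days, and nuclei were counted. Relative viability is the nuclei count for treated wells divided by that for vehicle wells, reported as medians of duplicate plates.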

A-427 = tested on: A-427
Method in brief: as §1

BEN = tested on: BEN
Method in brief: as §1

COR-L 105 = tested on: COR-L 105
Method in brief: as §1

COR-L23 = tested on: COR-L23
Method in brief: as §1

EKVX = tested on: EKVX
Method in brief: as §1

EMC-BAC-2 = tested on: EMC-BAC-2
Method in brief: as §1

HCC-15 = tested on: HCC-15
Method in brief: as §1

HCC-366 = tested on: HCC-366
Method in brief: as §1

HCC-78 = tested on: HCC-78
Method in brief: as §1

HOP-62 = tested on: HOP-62
Method in brief: as §1

LK-2 = tested on: LK-2
Method in brief: as §1

NCI-H1563 = tested on: NCI-H1563
Method in brief: as §1

NCI-H1734 = tested on: NCI-H1734
Method in brief: as §1

NCI-H1915 = tested on: NCI-H1915
Method in brief: as §1

NCI-H1993 = tested on: NCI-H1993
Method in brief: as §1

NCI-H2405 = tested on: NCI-H2405
Method in brief: as §1

NCI-H460 = tested on: NCI-H460
Method in brief: as §1

NCI-H647 = tested on: NCI-H647
Method in brief: as §1

NCI-H661 = tested on: NCI-H661
Method in brief: as §1

PC-14 = tested on: PC-14
Method in brief: as §1

SK-MES-1 = tested on: SK-MES-1
Method in brief: as §1

Cc1cn(-c2cc(NC(=O)c3ccc(C)c(Nc4nccc(-c5cccnc5)n4)c3)cc(C(F)(F)F)c2)cn1 [Nilotinib] + C[C@@H](Oc1cc(-c2cnn(C3CCNCC3)c2)cnc1N)c1c(Cl)ccc(F)c1Cl [Crizotinib] (partner 1 µM)
relative viability (201T; first compound 0.001 µM): 1.01
relative viability (201T; first compound 0.003162 µM): 1.07
relative viability (201T; first compound 0.01 µM): 0.91
relative viability (201T; first compound 0.1 µM): 1.07
relative viability (A-427; first compound 0.001 µM): 0.715
relative viability (A-427; first compound 0.01 µM): 1.25
relative viability (A-427; first compound 0.03162 µM): 0.548
relative viability (A-427; first compound 0.1 µM): 0.546
relative viability (BEN; first compound 0.001 µM): 0.731
relative viability (BEN; first compound 0.003162 µM): 0.978
relative viability (BEN; first compound 0.01 µM): 1.21
relative viability (BEN; first compound 0.1 µM): 0.971
relative viability (COR-L 105; first compound 0.001 µM): 0.821
relative viability (COR-L 105; first compound 0.01 µM): 0.796
relative viability (COR-L 105; first compound 0.03162 µM): 0.668
relative viability (COR-L 105; first compound 0.1 µM): 0.662
relative viability (COR-L23; first compound 0.001 µM): 0.601
relative viability (COR-L23; first compound 0.003162 µM): 0.625
relative viability (COR-L23; first compound 0.01 µM): 0.848
relative viability (COR-L23; first compound 0.03162 µM): 0.465
relative viability (COR-L23; first compound 0.1 µM): 0.625
relative viability (EKVX; first compound 0.001 µM): 0.812
relative viability (EKVX; first compound 0.003162 µM): 1.39
relative viability (EKVX; first compound 0.01 µM): 1.42
relative viability (EKVX; first compound 0.03162 µM): 0.809
relative viability (EKVX; first compound 0.1 µM): 1.13
relative viability (EMC-BAC-2; first compound 0.001 µM): 0.676
relative viability (EMC-BAC-2; first compound 0.003162 µM): 0.682
relative viability (EMC-BAC-2; first compound 0.01 µM): 0.795
relative viability (EMC-BAC-2; first compound 0.03162 µM): 0.673
relative viability (EMC-BAC-2; first compound 0.1 µM): 0.753
relative viability (HCC-15; first compound 0.001 µM): 0.723
relative viability (HCC-15; first compound 0.003162 µM): 0.96
relative viability (HCC-15; first compound 0.01 µM): 1.1
relative viability (HCC-15; first compound 0.03162 µM): 0.58
relative viability (HCC-15; first compound 0.1 µM): 0.687
relative viability (HCC-366; first compound 0.001 µM): 0.484
relative viability (HCC-366; first compound 0.003162 µM): 0.627
relative viability (HCC-366; first compound 0.01 µM): 1.38
relative viability (HCC-366; first compound 0.03162 µM): 0.389
relative viability (HCC-366; first compound 0.1 µM): 0.609
relative viability (HCC-78; first compound 0.001 µM): 0.351
relative viability (HCC-78; first compound 0.003162 µM): 0.239
relative viability (HCC-78; first compound 0.01 µM): 0.432
relative viability (HCC-78; first compound 0.03162 µM): 0.333
relative viability (HCC-78; first compound 0.1 µM): 0.361
relative viability (HOP-62; first compound 0.001 µM): 0.738
relative viability (HOP-62; first compound 0.003162 µM): 1.22
relative viability (HOP-62; first compound 0.01 µM): 1.13
relative viability (HOP-62; first compound 0.03162 µM): 0.796
relative viability (HOP-62; first compound 0.1 µM): 0.738
relative viability (LK-2; first compound 0.001 µM): 0.244
relative viability (LK-2; first compound 0.003162 µM): 0.276
relative viability (LK-2; first compound 0.01 µM): 0.206
relative viability (LK-2; first compound 0.03162 µM): 0.251
relative viability (LK-2; first compound 0.1 µM): 0.241
relative viability (NCI-H1563; first compound 0.001 µM): 0.772
relative viability (NCI-H1563; first compound 0.003162 µM): 0.856
relative viability (NCI-H1563; first compound 0.01 µM): 0.757
relative viability (NCI-H1563; first compound 0.03162 µM): 0.914
relative viability (NCI-H1563; first compound 0.1 µM): 0.739
relative viability (NCI-H1734; first compound 0.001 µM): 0.68
relative viability (NCI-H1734; first compound 0.003162 µM): 0.659
relative viability (NCI-H1734; first compound 0.01 µM): 0.717
relative viability (NCI-H1734; first compound 0.03162 µM): 0.433
relative viability (NCI-H1734; first compound 0.1 µM): 0.475
relative viability (NCI-H1915; first compound 0.001 µM): 0.73
relative viability (NCI-H1915; first compound 0.003162 µM): 1.18
relative viability (NCI-H1915; first compound 0.01 µM): 1.24
relative viability (NCI-H1915; first compound 0.03162 µM): 0.787
relative viability (NCI-H1915; first compound 0.1 µM): 0.848
relative viability (NCI-H1993; first compound 0.001 µM): 0.998
relative viability (NCI-H1993; first compound 0.003162 µM): 0.838
relative viability (NCI-H1993; first compound 0.01 µM): 0.994
relative viability (NCI-H1993; first compound 0.03162 µM): 0.762
relative viability (NCI-H1993; first compound 0.1 µM): 0.887
relative viability (NCI-H2405; first compound 0.001 µM): 0.854
relative viability (NCI-H2405; first compound 0.003162 µM): 0.746
relative viability (NCI-H2405; first compound 0.01 µM): 0.84
relative viability (NCI-H2405; first compound 0.03162 µM): 0.747
relative viability (NCI-H2405; first compound 0.1 µM): 0.857
relative viability (NCI-H460; first compound 0.001 µM): 0.752
relative viability (NCI-H460; first compound 0.003162 µM): 1.06
relative viability (NCI-H460; first compound 0.01 µM): 1.56
relative viability (NCI-H460; first compound 0.03162 µM): 0.245
relative viability (NCI-H460; first compound 0.1 µM): 0.901
relative viability (NCI-H647; first compound 0.001 µM): 1.05
relative viability (NCI-H647; first compound 0.003162 µM): 1.34
relative viability (NCI-H647; first compound 0.03162 µM): 0.749
relative viability (NCI-H647; first compound 0.1 µM): 0.716
relative viability (NCI-H661; first compound 0.001 µM): 0.879
relative viability (NCI-H661; first compound 0.003162 µM): 1.12
relative viability (NCI-H661; first compound 0.01 µM): 1.03
relative viability (NCI-H661; first compound 0.03162 µM): 0.945
relative viability (NCI-H661; first compound 0.1 µM): 0.93
relative viability (PC-14; first compound 0.001 µM): 0.871
relative viability (PC-14; first compound 0.003162 µM): 0.941
relative viability (PC-14; first compound 0.01 µM): 1.11
relative viability (PC-14; first compound 0.03162 µM): 0.861
relative viability (PC-14; first compound 0.1 µM): 0.945
relative viability (SK-MES-1; first compound 0.003162 µM): 1.09
relative viability (SK-MES-1; first compound 0.01 µM): 1.06
relative viability (SK-MES-1; first compound 0.03162 µM): 0.994
relative viability (SK-MES-1; first compound 0.1 µM): 0.982
